The subject of series [1] is FolR1 expressing tumor cells and FolR1 negative cell line MKN-45. In words: Flow cytometry binding to tumor cells with different FolR1 expression levels. More on the design: species or system human. From the text:
FIGS. 6A-E depict graphs summarizing binding of FolR1 IgGs to cells with different FolR1 expression levels. […] DP47 IgG was included as isotype control and MKN-45 were included as FolR1 negative cell line.
The used panel of tumor cells contains FolR1 high, intermediate and low expressing tumor cells and a FolR1 negative cell line.
The amount of bound construct is proportional to the FolR1 expression level and there is still good binding of the constructs to the FolR1 low cell line HT-29 detectable. […] DP47 TCB is an untargeted TCB and was prepared as described in WO2014/131712.

Another series has as its system SKOV3 cells. In words: T cell mediated killing (LDH release). It counts as cell-based, human. Particulars: SKOV3 and HT-29 cells. On the procedure:
(§1) FIGS. 7A-L depict graphs summarizing T cell mediated killing of HT-29 and SKOV3 cells. FolR1 TCBs were used to test T cell mediated killing of HT-29 and SKOV3 tumor cells and upregulation of activation marker on T cells upon killing. […] DP47 TCB was included as negative control. After 48 h incubation upregulation of the activation marker CD25 and CD69 on CD8 T cells and CD4 T cells upon killing of SKOV3 (FIGS. 7E-H) or HT-29 (FIG. 7I-L) tumor cells was assessed by flow cytometry.
(§2) Overall killing of SKOV3 cells was higher compared to HT-29 which reflects the higher expression levels of FolR1 on SKOV3 cells (FIGS. 7A-D). In line with this, a strong upregulation of the activation marker CD25 and CD69 on CD4^+ T cells and CD8^+ T cells was detected. Activation of T cells was very similar in the presence of SKOV3 cells and HT-29 cells.

Series [2] relates to CD4 and CD8 T cells with SKOV3 cells. Put plainly: T cell activation upon killing (CD25, CD69, flow cytometry). It counts as cell-based, human. As to conditions: SKOV3 and HT-29 cells. On the procedure:
as §1, §2

Series [3] deals with T cells in FolR1 positive tumor digests or malignant effusions. In words: Ex vivo treatment of tumor samples with FolR1-TCB (T cell activation). It counts as cell-based, human. On the procedure: FolR1 positive tumor digests or malignant effusions were thawed, washed and plated in 96-well flat bottom cell culture plates (BD Falcon) with a density of 3×10^5 cells/200 μl/well in complete medium (DMEM+Sodium Pyruvate (1 mM)+MEM non essential AA (1×)+L-Glutamin (2 mM)+Penicillin/Streptomycin ([…])+2-Mercaptoethanol ([…])+Ciproxin (1 mg/ml)+10% human Serum). The samples were cultured in the presence or absence of FolR1-TCB or DP47 TCB at a concentration of 2 nM for 24h. Activation of CD8+ and CD4^+ T cells (CD45^+CD3+) upon FolR1-TCB treatment was determined by multicolor flow cytometry by measuring the expression of the cell surface markers CD25, CD69, CD137, ICOS, PD-1 and Tim-3. Furthermore the expression of granzyme B and IFN-γ was determined by intracellular staining.
To determine FolR1-TCB induced T cell activation, tumor samples were cultured in the presence or absence of FolR1-TCB or the control TCB DP-47. Then, T cells were characterized by multicolor flow cytometry for expression of activation markers and T cell effector functions, as described above. […] FolR1-TCB-induced perforin secretion was highly variable in TILs, and severely impaired in a subset of patients (FIG. 12N).

Series [4] relates to CFSE-labelled Skov3 cells. Put plainly: Killing assay with tumor samples. It counts as cell-based, human. On the procedure: To determine the FolR1-TCB induced tumor cell killing, 3×10^4 CFSE-labelled Skov3 cells were cocultured with tumor samples in the presence or absence of FolR1-TCB at a concentration of 2 nM for 24h in 96-well flat bottom cell culture plates. The E:T ratio (E: effector CD45^+CD3^+ cells; T: target FolR1^+ cells from tumor and added Skov3 cells) was adjusted to 1:1 in each well and the cell number of the added tumor samples was calculated for each sample according to prior characterization by flow cytometry. Cell death of Skov3 cells was determined by flow cytometry by measuring activated caspase 3 and the live/dead marker Live/Dead-near-IR. The assay was performed in triplicates. The FolR1-TCB mediated killing was calculated according to the following equation: % of specific killing=100−[(% of Skov3 live cells in FolR1-TCB treated sample/% of Skov3 live cells in untreated sample)×100].
To compare the FolR1-TCB-induced killing capacity of T-cells between tumor samples, and to exclude additional factors suppressing T-cell functionality, such as expression of PD-L1 on the tumor cells, we exogenously added CFSE-labeled FolR1^+ Skov3 cells to the tumor digests and adjusted the E:T ratio to 1:1, essentially as described above. We then measured the FolR1-TCB-induced killing of CFSE-labeled Skov3 cells, which allowed us to also include FolR1^− tumor samples into the analysis. […]

Series [5] deals with CD8^+ T-cells with FolR1^+ ovarian cancer cell line Skov3. In words: PBMCs from healthy donors co-cultured with Skov3 cells, FolR1-TCB. It is filed as cell-based, human. Particulars: 0.6 pM to 2 nM for 24 h. How it is done:
FIGS. 40A-C show activation of CD8^+ T-cells upon exposure to increasing concentrations of FolR1-TCB. PBMCs were co-cultured with Skov3 cells for 24 h in the presence or absence of FolR1-TCB or the unspecific control DP-47-TCB. […] Shaded histogram: isotype control; open histogram: anti-FolR1-antibody. FIG. 40B: The expression of the activation markers CD25, CD137, and ICOS on CD8^+ T-cells was determined by flow cytometry.
To assess the effect of FolR1-TCB on T-cell activation peripheral blood mononuclear cells (PBMCs) from healthy donors were co-cultured with the FolR1^+ ovarian cancer cell line Skov3 (FIG. 40A). […] In addition, T-cells secreted IL-2, IFN-γ, and TNF.

The test system of series [6] is T cells in EpCAM positive tumor digests or malignant effusions. Put plainly: Ex vivo treatment of tumor samples with catumaxomab. It is filed as cell-based, human. Particulars: 10 ng/ml, 24h; 4 NSCLC tumor digests. How it is done:
The trifunctional TCB catumaxomab (Removab®) was obtained from Fresenius. The experimental conditions were similar as indicated above for FolR1-TCB. Briefly, EpCAM positive tumor digests or malignant effusions were cultured in the presence or absence of catumaxomab at a concentration of 10 ng/ml for 24h. Analysis of CD8÷ and CD4^+ positive T cells (CD45^+CD3+) was performed as described above.
To determine to which extent catumaxomab induces T cell activation and to confirm the findings described above using a second, independent T cell bispecific molecule, 4 tumor digests from patients with NSCLC were exposed to catumaxomab, a trifunctional bispecific antibody recognizing CD3 on T cells and EpCAM on tumor cells. Then, T cells were characterized by flow cytometry for expression of activation markers and T cell effector functions (FIG. 17A-D). […] Accordingly, the baseline expression of inhibitory receptors differed between the patients (FIG. 17E-H).

Another series deals with T cells in tumor digests. In words: Polyclonal stimulation with anti-CD3/CD28 antibodies and PD-1 blockade. As to conditions: 10 μg/ml, 24 hrs. It is filed as cell-based, human.
For series [7], the system named is T cells in FolR1^+ tumor digests or malignant effusions. In words: FolR1-TCB with PD-1 blockade in tumor digests or malignant effusions. As to conditions: combination with FolR1-TCB. It counts as cell-based, human. On the procedure: FIG. 38A-D: FolR1^+ tumor digests or malignant effusions were cultured for 24 h with FolR1-TCB in the presence or absence of a PD-1 blocking antibody. […] The increase in cytokine secretion upon combined FolR1-TCB and anti-PD-1 treatment compared with FolR1-TCB alone was determined in PD-1^hi scarce and abundant tumors. FIG. 38E: Tumor digests or malignant effusions were co-cultured with exogenously added fluorescently labeled Skov3 cells at an E:T ratio of 1:1 for 24 h in the presence or absence of a PD-1 blocking antibody and FolR1-TCB. The increase in specific killing by the anti-PD-1 antibody was compared in PD-1^hi scarce and abundant tumors. p-values were calculated using the unpaired Mann-Whitney test.
As the level of PD-1 expression on TILs correlates with the efficacy of FolR1-TCB, we analyzed whether blockade of the PD-1/PD-L1 axis in combination with FolR1-TCB treatment might be able to restore T-cell function.

“DP47 TCB: untargeted TCB, negative control, prepared as described in WO2014/131712”: the “binding to panel of tumor cell lines” value in series [1] was “no binding”. Also, in the series on SKOV3 cells, the “T cell mediated killing (in words)” value was “does not induce any killing”. In addition, the “upregulation of CD25 and CD69 on T cells (in words)” value in series [2] was “no significant upregulation of CD25 and CD69 on T cells”. Moreover, the “T cell activation in tumor samples (in words)” value in series [3] is given as “did not induce any T cell activation”. For the same substance, the “tumor cell killing (in words)” value in series [4] is listed as “did not induce any tumor cell killing”. Moreover, the “activation of CD8^+ T-cells (in words)” value in series [5] is “did not induce any T-cell activation”.
Regarding catumaxomab, the “catumaxomab induced T cell activation (in words)” value in series [6] is listed as “striking heterogeneity in catumaxomab induced T cell activation”.
With nivolumab: PD-1 blocking antibody, the “restoration of T cell effector function by PD-1 blockade (in words)” value with T cells in tumor digests is “could restore T cell effector function such as production and secretion of IL-2, IFN-γ and TNF-α only in some patients”. The “secretion of IFN-γ, TNF, IL-2 and perforin upon combined treatment with FolR1-TCB (in words)” value in series [7] (24 h) was “could be increased only in some of the PD-1^hi scarce tumors”. For the same substance, in series [7] (Skov3 cells E:T 1:1), the “cytotoxic tumor cell killing upon additional PD-1 blockade (in words)” value was “could neither be improved”.

The values are drawn from patent US10781262B2, “Combination therapy of T cell activating bispecific antigen binding molecules and PD-1 axis binding antagonists” (Hoffmann-La Roche Inc., priority 2014, dated 2020).
